From patent US9302999B2, “Substituted triazoles as herbicides” (E. I. DU PONT DE NEMOURS AND COMPANY, priority 2012, dated 2016)

What was measured:
Assay type in all cases: in vivo
[1] = system: barnyardgrass (Echinochloa crus-galli); experiment: Test A pre-/postemergence: barnyardgrass; details: for Barnyardgrass plant response rating: Postemergence; for Plant response rating, Barnyardgrass: Preemergence
Summary of the method: (§1)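 Plants in loam–sand blend were treated with test chemicals in non-phytotoxic solvent with surfactant, either as preemergence directed soil spray or postemergence at 2–10 cm, one- to two-leaf stage. After about ten days in greenhouse, injury was rated visually against untreated controls on a 0–100 scale (100 = complete control).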

[2] = system: morningglory (Ipomoea spp.); experiment: Test A pre-/postemergence: morningglory; details: for Morningglory plant response rating: Postemergence; for Plant response rating, Morningglory: Preemergence
Summary of the method: as §1

[3] = system: wheat (Triticum aestivum); experiment: Test A pre-/postemergence: wheat; details: for Wheat plant response rating: Postemergence; for Plant response rating, Wheat: Preemergence
Summary of the method: as §1

corn (Zea mays) = experiment: Test A pre-/postemergence: corn; details: for Corn plant response rating: Postemergence; for Plant response rating, Corn: Preemergence
Summary of the method: as §1

[4] = system: blackgrass (Alopecurus myosuroides); experiment: Test C pre-/postemergence: blackgrass
Summary of the method: (§2)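 Preemergence on seeds in loam/sand, postemergence on 2–18 cm (1–4-leaf) plants in peat-based medium; compounds in non-phytotoxic solvent with surfactant. After 13–15 days in greenhouse, visual rating versus controls, 0 (no effect) to 100 (complete control).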

[5] = system: ryegrass, Italian (Italian ryegrass, Lolium multiflorum); experiment: Test C pre-/postemergence: ryegrass, Italian
Summary of the method: as §2

[6] = system: large crabgrass (Digitaria sanguinalis); experiment: Test C pre-/postemergence: large crabgrass
Summary of the method: as §2

[7] = system: johnsongrass (Sorghum halepense); experiment: Test C pre-/postemergence: johnsongrass
Summary of the method: as §2

[8] = system: nutsedge, yellow (yellow nutsedge, Cyperus esculentus); experiment: Test C pre-/postemergence: nutsedge, yellow
Summary of the method: as §2

[9] = system: pigweed (Amaranthus retroflexus); experiment: Test C pre-/postemergence: pigweed
Summary of the method: as §2

soybean (Glycine max) = experiment: Test C pre-/postemergence: soybean
Summary of the method: as §2

[10] = 125 g ai/ha, 0 to 100 scale, 0 is no effect, 100 is complete control
[11] = 500 g ai/ha, visual rating on 0 to 100 scale (0 no effect, 100 complete control), approximately ten days
[12] = 125 g ai/ha, 0 to 100 scale (0 no effect, 100 complete control)
[13] = 500 g ai/ha, 0 to 100 scale, 0 is no effect, 100 is complete control
[14] = Postemergence, 31 g ai/ha, scale 0 to 100 (0 no effect, 100 complete control)
[15] = Postemergence, 62 g ai/ha, scale 0 to 100 (0 no effect, 100 complete control)
[16] = Postemergence, 125 g ai/ha, scale 0 to 100, 0 no effect, 100 complete control
[17] = Postemergence, 250 g ai/ha, scale 0 to 100
[18] = Preemergence, 31 g ai/ha, scale of 0 to 100, 0 is no effect, 100 is complete control
[19] = Preemergence, 125 g ai/ha, scale 0 to 100, 0 no effect, 100 complete control
[20] = Preemergence, 250 g ai/ha, scale 0 to 100, 0 no effect, 100 complete control
[21] = Preemergence, 62 g ai/ha, scale of 0 to 100, 0 is no effect, 100 is complete control

FC(F)Oc1nn(-c2ccc(C(F)(F)F)cc2)nc1Cc1ccnc(C(F)(F)F)c1 [Compound 26]
10: Plant response rating, Ryegrass, Italian [5, 14] | Plant response rating, Ryegrass, Italian [5, 18] | Plant response rating, Nutsedge, Yellow [8, 14] | Plant response rating, Nutsedge, Yellow [8, 15]
20: Plant response rating, Ryegrass, Italian [5, 15] | Plant response rating, Crabgrass, Large [6, 14]
50: Plant response rating, Wheat [3, 12] | Plant response rating, Corn (corn (Zea mays); [13]) | Plant response rating, Soybean (soybean (Glycine max); [16])
5: Plant response rating, Soybean (soybean (Glycine max); [21]) | Plant response rating, Soybean (soybean (Glycine max); [19])
30: Corn plant response rating (corn (Zea mays); [10]) | Plant response rating, Corn (corn (Zea mays); [12]) | Plant response rating, Blackgrass [4, 14] | Plant response rating, Ryegrass, Italian [5, 16] | Plant response rating, Crabgrass, Large [6, 15]
0: Plant response rating, Nutsedge, Yellow [8, 18] | Plant response rating, Nutsedge, Yellow [8, 21] | Plant response rating, Nutsedge, Yellow [8, 19] | Plant response rating, Nutsedge, Yellow [8, 20] | Plant response rating, Soybean (soybean (Glycine max); [18])
98: Plant response rating, Crabgrass, Large [6, 18] | Plant response rating, Crabgrass, Large [6, 21] | Plant response rating, Johnsongrass [7, 20] | Plant response rating, Pigweed [9, 17]
15: Plant response rating, Johnsongrass [7, 14] | Plant response rating, Johnsongrass [7, 15] | Plant response rating, Johnsongrass [7, 18] | Plant response rating, Nutsedge, Yellow [8, 16] | Plant response rating, Nutsedge, Yellow [8, 17] | Plant response rating, Soybean (soybean (Glycine max); [20])
55: Plant response rating, Blackgrass [4, 18] | Plant response rating, Johnsongrass [7, 21] | Plant response rating, Soybean (soybean (Glycine max); [17])
100: Morningglory plant response rating [2, 10] | Morningglory plant response rating [2, 11] | Plant response rating, Crabgrass, Large [6, 19] | Plant response rating, Crabgrass, Large [6, 20] | Plant response rating, Pigweed [9, 18] | Plant response rating, Pigweed [9, 21] | Plant response rating, Pigweed [9, 19] | Plant response rating, Pigweed [9, 20]
25: Plant response rating, Johnsongrass [7, 16]
95: Plant response rating, Johnsongrass [7, 19]
35: Plant response rating, Blackgrass [4, 15] | Plant response rating, Ryegrass, Italian [5, 17] | Plant response rating, Soybean (soybean (Glycine max); [14])
60: Wheat plant response rating [3, 10] | Plant response rating, Ryegrass, Italian [5, 21] | Plant response rating, Ryegrass, Italian [5, 19] | Plant response rating, Pigweed [9, 15]
80: Barnyardgrass plant response rating [1, 10] | Plant response rating, Morningglory [2, 12] | Plant response rating, Morningglory [2, 13] | Wheat plant response rating [3, 11] | Plant response rating, Wheat [3, 13] | Plant response rating, Ryegrass, Italian [5, 20] | Plant response rating, Pigweed [9, 16]
90: Barnyardgrass plant response rating [1, 11] | Plant response rating, Barnyardgrass [1, 12] | Plant response rating, Barnyardgrass [1, 13] | Plant response rating, Blackgrass [4, 17] | Plant response rating, Blackgrass ([4]; Preemergence, 62 g ai/ha, scale 0 to 100, 0 no effect, 100 complete control) | Plant response rating, Blackgrass [4, 19] | Plant response rating, Blackgrass [4, 20]
40: Corn plant response rating (corn (Zea mays); [11]) | Plant response rating, Crabgrass, Large [6, 16] | Plant response rating, Crabgrass, Large [6, 17] | Plant response rating, Johnsongrass [7, 17] | Plant response rating, Soybean (soybean (Glycine max); [15])
70: Plant response rating, Blackgrass [4, 16]

FC(F)(F)c1ccc(-n2nc(Cl)c(Cc3ccnc(C(F)(F)F)c3)n2)cc1 [Compound 28]
40: Wheat plant response rating [3, 10]
100: Morningglory plant response rating [2, 10] | Morningglory plant response rating [2, 11]
25: Plant response rating, Ryegrass, Italian [5, 15] | Plant response rating, Ryegrass, Italian [5, 16] | Plant response rating, Crabgrass, Large [6, 17] | Plant response rating, Nutsedge, Yellow [8, 17]
98: Plant response rating, Pigweed [9, 17]
50: Plant response rating, Barnyardgrass [1, 12] | Wheat plant response rating [3, 11] | Corn plant response rating (corn (Zea mays); [11])
30: Corn plant response rating (corn (Zea mays); [10]) | Plant response rating, Ryegrass, Italian [5, 17] | Plant response rating, Soybean (soybean (Glycine max); [14])
70: Barnyardgrass plant response rating [1, 10]
20: Plant response rating, Morningglory [2, 12] | Plant response rating, Wheat [3, 13] | Plant response rating, Corn (corn (Zea mays); [12]) | Plant response rating, Corn (corn (Zea mays); [13]) | Plant response rating, Crabgrass, Large [6, 16]
10: Plant response rating, Blackgrass [4, 14] | Plant response rating, Blackgrass [4, 15] | Plant response rating, Ryegrass, Italian [5, 14] | Plant response rating, Crabgrass, Large [6, 14] | Plant response rating, Johnsongrass [7, 17]
15: Plant response rating, Crabgrass, Large [6, 15] | Plant response rating, Nutsedge, Yellow [8, 16]
0: Plant response rating, Wheat [3, 12]
90: Barnyardgrass plant response rating [1, 11] | Plant response rating, Barnyardgrass [1, 13]
35: Plant response rating, Soybean (soybean (Glycine max); [15]) | Plant response rating, Soybean (soybean (Glycine max); [16])
55: Plant response rating, Blackgrass [4, 16] | Plant response rating, Pigweed [9, 14] | Plant response rating, Pigweed [9, 15] | Plant response rating, Pigweed [9, 16]
5: Plant response rating, Johnsongrass [7, 14] | Plant response rating, Johnsongrass [7, 15] | Plant response rating, Johnsongrass [7, 16] | Plant response rating, Nutsedge, Yellow [8, 14] | Plant response rating, Nutsedge, Yellow [8, 15]
60: Plant response rating, Blackgrass [4, 17] | Plant response rating, Soybean (soybean (Glycine max); [17])
